One molecule from patent US8633182B2, “Indanyloxyphenylcyclopropanecarboxylic acids” (Boehringer Ingelheim International GmbH, priority 2012, dated 2014) can be followed below.

The target of the assay is human GPR40 receptor (Homo sapiens, UniProt O14842). Put plainly: IP1 accumulation measurements using the IPOne assay system in 1321N1 cells stably expressing human GPR40 receptor. Format: cell-based. As to conditions: IP1 accumulation (HTRF), 1321N1 cells stably expressing human GPR40, 1 hour stimulation at 37° C. Here is the method: IP1 accumulation measurements using the IPOne assay system—1321N1 cells stably expressing human GPR40 receptor (Euroscreen, Belgium) are seeded 24 h before the assay in black clear-bottom collagen-coated or white 384-well plates in culture medium containing 10% FCS, 1% Na-Pyruvate and 400 μg/mL G418. IP1 is assayed according to the Manufacturer's description (Cisbio Bioassays, France). In brief, the assay is started by substitution of the culture medium by stimulation buffer (Hepes 10 mM, CaCl2 1 mM, MgCl2 0.5 mM, KCl 4.2 mM, NaCl 146 mM and glucose 5.5 mM, pH 7.4) without LiCl or with […]. Cells are stimulated for 1 hour at 37° C., 5 or 10% CO2 by addition of the compounds that are diluted in stimulation buffer containing LiCl yielding a final LiCl concentration of 50 mM. Assays are stopped by adding HTRF-conjugates (IP1-d2 and Anti-IP1 cryptate Tb) and lysis buffer, provided by the manufacturer. After an incubation time of 1 hour at room temperature plates are measured using an EnVision™, Perkin Elmer. The obtained fluorescence ratios at […] are then used to calculate the pEC50 values using GraphPad Prism 5 (Graphpad Software Inc, USA) or Assay Explorer 3.3 Software (Accelrys, Inc.) by interpolation using an IP1 reference curve and subsequent sigmoidal curve fitting allowing for a variable hill slope.
human GPR40 receptor, sequence (O14842 whole entry): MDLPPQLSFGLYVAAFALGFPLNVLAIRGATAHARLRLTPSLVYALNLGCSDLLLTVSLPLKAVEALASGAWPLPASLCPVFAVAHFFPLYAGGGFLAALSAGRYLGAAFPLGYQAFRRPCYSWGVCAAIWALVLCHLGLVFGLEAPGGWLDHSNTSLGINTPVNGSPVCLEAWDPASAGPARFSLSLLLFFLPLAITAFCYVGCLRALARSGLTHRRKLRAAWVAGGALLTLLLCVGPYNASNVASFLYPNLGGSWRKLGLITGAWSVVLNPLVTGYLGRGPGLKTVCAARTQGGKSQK

With `Cc1nc(-c2ccc(-c3c(C(F)(F)F)ccc4c3CC[C@H]4Oc3ccc([C@H]4C[C@@H]4C(=O)O)cc3)cc2)no1` [Example 64, (1S,2S)-2-(4-{(R)-4-[4-(5-Methyl-[1,2,4}oxadiazol-3-yl)-phenyl]-5-trifluoromethyl-indan-1-yloxy}-phenyl)-cyclopropanecarboxylic acid], a half-maximal effect (EC50) was put at 3 nM.
